Results on six compounds are retold here after US9694015B2, “Methods for the treatment of locally advanced breast cancer” (Celgene Corporation, priority 2012, dated 2017).

As a reminder, the IC50 is the concentration at which inhibition is half-maximal.

For one assay, the system named is TNF-α. Put plainly: LPS-stimulated hPBMC cytokine/chemokine production: TNF-α. The note with it: Homo sapiens. In kind it is cell-based. An excerpt:
(§1) Data provided are IC50 (μM) values for the indicated cytokines

A further assay relates to MIP-1β. Nature of the assay: LPS-stimulated hPBMC cytokine/chemokine production: MIP-1β. In kind it is cell-based. The note with it: Homo sapiens; LPS-stimulated hPBMC; read-out: MIP-1β IC50.
Another assay deals with GM-CSF. Put plainly: LPS-stimulated hPBMC cytokine/chemokine production: GM-CSF. In kind it is cell-based. As to conditions: Homo sapiens; LPS-stimulated hPBMC; read-out: GM-CSF IC50.
For a further assay, the system named is IL-10. Put plainly: LPS-stimulated hPBMC cytokine/chemokine production: IL-10 enhancement. In kind it is cell-based, human.
Excerpt: as §1

The next assay has as its system IL-8. Nature of the assay: LPS-stimulated hPBMC cytokine/chemokine production: IL-8. In kind it is cell-based. As to conditions: Homo sapiens.
Excerpt: as §1

Another assay deals with IL-1β. Put plainly: LPS-stimulated hPBMC cytokine/chemokine production: IL-1β. In kind it is cell-based. As to conditions: Homo sapiens.
Excerpt: as §1

Another assay has as its system IL-6. Put plainly: LPS-stimulated hPBMC cytokine/chemokine production: IL-6. In kind it is cell-based. The note with it: Homo sapiens.
The next assay concerns MCP-1. Put plainly: LPS-stimulated hPBMC cytokine/chemokine production: MCP-1 enhancement. In kind it is cell-based, human.
Excerpt: as §1

For the next assay, the system named is MDC. Put plainly: LPS-stimulated hPBMC cytokine/chemokine production: MDC. In kind it is cell-based. The note with it: Homo sapiens.
The next assay has as its system MIP-1α. Put plainly: LPS-stimulated hPBMC cytokine/chemokine production: MIP-1α. In kind it is cell-based. As to conditions: Homo sapiens; LPS-stimulated hPBMC; read-out: MIP-1α IC50.
The test system of a further assay is RANTES. Nature of the assay: LPS-stimulated hPBMC cytokine/chemokine production: RANTES enhancement. In kind it is cell-based, human.

In the assay on TNF-α, `O=C1CCC(N2Cc3c(OCc4ccc(CCN5CCOCC5)cc4)cccc3C2=O)C(=O)N1` (stereo not drawn) [3-{4-[4-(2-morpholin-4-yl-ethyl)-benzyloxy]-1-oxo-1,3-dihydro-isoindol-2-yl}-piperidine-2,6-dione] gave a half-inhibitory concentration (IC50) of 0.79 nM.

Consider `O=C1CC[C@@H](N2Cc3c(OCc4ccc(CN5CCOCC5)cc4)cccc3C2=O)C(=O)N1` [(R)-3-(4-((4-(morpholinomethyl)benzyl)oxy)-1-oxoisoindolin-2-yl)piperidine-2,6-dione], for which the IC50 is greater than 10000 nM with MIP-1β; 39 nM with GM-CSF; 9.5 nM in the assay with TNF-α; greater than 10000 nM in the assay with IL-8; 6.2 nM with IL-1β; 83 nM in the assay on IL-6. Moreover, the 50% inhibitory concentration (IC50) in the assay with MDC was 12 nM; in the assay with MIP-1α, 450 nM. Further, the “IL-10 (% of control)” value in the assay on IL-10 is recorded as 442 % of control. Moreover, the “MCP-1 (% of control)” value in the assay with MCP-1 is listed as 223 % of control. For the same compound, in the assay on RANTES, the “RANTES (% of control)” value is listed as 151 % of control.

As for `O=C1CCC(N2Cc3c(OCc4ccc(CN5CCOCC5)cc4)cccc3C2=O)C(=O)N1` (stereo not drawn) [3-(4-((4-(morpholinomethyl)benzyl)oxy)-1-oxoisoindolin-2-yl)piperidine-2,6-dione], the concentration for half-maximal inhibition (IC50) in the assay with MIP-1β was greater than 10000 nM; in the assay with GM-CSF, 9.2 nM; in the assay with TNF-α it was 1.8 nM; in the assay with IL-8 it was greater than 10000 nM; in the assay on IL-1β, 0.85 nM; in the assay with IL-6 it was 10 nM. The values for the half-maximal inhibitory concentration (IC50) with MDC and in the assay with MIP-1α were 2.6 nM and 190 nM, respectively. In addition, in the assay on IL-10, the “IL-10 (% of control)” value was 372 % of control. Further, the “MCP-1 (% of control)” value in the assay with MCP-1 is reported as 208 % of control. Moreover, the “RANTES (% of control)” value with RANTES was 153 % of control.

Compound `O=C1CCC(N2Cc3c(OCc4ccc(OCCN5CCOCC5)cc4)cccc3C2=O)C(=O)N1` (stereo not drawn) [3-(4-(4-(2-morpholin-4-yl-ethoxy)-benzyloxy)-1-oxoisoindolin-2-yl)-piperidine-2,6-dione] returned an IC50 with TNF-α of 0.96 nM.

Compound `O=C1CCC(N2Cc3c(OCc4ccc(OCCN5CCCC5)cc4)cccc3C2=O)C(=O)N1` (stereo not drawn) [3-(1-oxo-4-(4-(2-(pyrrolidin-1-yl)ethoxy)benzyloxy)isoindolin-2-yl)-piperidine-2,6-dione] had an IC50 in the assay with TNF-α of 0.52 nM.

Consider `O=C1CCC(N2C(=O)c3ccccc3C2=O)C(=O)N1` (stereo not drawn) [thalidomide, reference compound], for which the 50% inhibitory concentration (IC50) with MIP-1β, in the assay with GM-CSF, with TNF-α, with IL-8, in the assay with IL-1β and with IL-6 was greater than 10000 nM in each case. In addition, the IC50 in the assay on MDC and with MIP-1α was greater than 10000 nM in each case. For the same compound, the “IL-10 (% of control)” value in the assay on IL-10 is recorded as 170 % of control. Also, the “MCP-1 (% of control)” value in the assay with MCP-1 is 138 % of control. Moreover, the “RANTES (% of control)” value with RANTES is 89 % of control.
